Assay results: US20250346569A1, “NEW DERIVATIVES FOR TREATING TRPM3 MEDIATED DISORDERS” (Katholieke Universiteit Leuven, priority 2022, published 2025)

Biological target: T1, mouse TRPM3α2 (mTRPM3) ion channel (Mus musculus, UniProt J9SQF3)
T1 construct: expressed in transfected cells; host or cells: flip-in HEK293
Assay: Monitoring the TRPM3 ion channel driven Ca2+ uptake (Fluo-4 AM assay)
Type: cell-based
Settings: TRPM3 overexpressing flip-in HEK293 cells, channel stimulated with Pregnenolone sulfate (PS) 50 μM
Description: Monitoring the TRPM3 ion channel driven Ca^2+ uptake.
In order to monitor the inhibition of the mouse TRPM3α2 (mTRPM3) ion channel by the compounds of the invention, a cellular system making use of an mTRPM3alpha2 or hTRPM3 overexpressing cell line (flip-in HEK293) was used. The TRPM3 channel was stimulated/opened with Pregnenolone sulfate (PS) (50 μM) which results in Ca^2+ influx.
For mTRPM3, the intracellular Ca^2+ was measured with a Calcium responsive dye, Fluor-4 AM ester (Invitrogen). Cells were cultured until a confluence of 80-90%, washed with Versene (Invitrogen) and detached from the surface by a short incubation with 0.05% Trypsin (Invitrogen). The trypsination process was stopped by the addition of complete cell culture medium (DMEM, glutamax,10% FCS,NEAA,Pen-Strep). Cells were collected and resuspended in Krebs buffer without Calcium at RT.
Prior the cell seeding (±2000 cells/well into a black, 384 well plate (Greiner)) the diluted compound was added in the assay plate, together with the PS dissolved in Krebs buffer containing Calcium. […] Directly after cell addition the plates were read on an Envision fluorescence reader (Perkin Elmer) by an Excitation of 485 nm and emission at 535 nm.
Channel inhibition was calculated compared to a non-PS stimulated control versus a condition stimulated with PS (50 μM) with vehicle. The ability of the compounds of the invention to inhibit this activity was determined as: Percentage inhibition=[1−((RFU determined for sample with test compound present−RFU determined for sample with positive control inhibitor) divided by (RFU determined in the presence of vehicle−RFU determined for sample with positive control inhibitor))]*100.
The activities of the Example compounds tested are depicted in the table below. The activity ranges A, B and C refer to IC50 values in the Fluo-4 AM assay as follows: “A”: IC50<1 μM; “B”: 1 μM≤IC50≤20 μM and “C”: IC50>20 μM

T1 sequence (J9SQF3 1-1709 isoform J9SQF3-12): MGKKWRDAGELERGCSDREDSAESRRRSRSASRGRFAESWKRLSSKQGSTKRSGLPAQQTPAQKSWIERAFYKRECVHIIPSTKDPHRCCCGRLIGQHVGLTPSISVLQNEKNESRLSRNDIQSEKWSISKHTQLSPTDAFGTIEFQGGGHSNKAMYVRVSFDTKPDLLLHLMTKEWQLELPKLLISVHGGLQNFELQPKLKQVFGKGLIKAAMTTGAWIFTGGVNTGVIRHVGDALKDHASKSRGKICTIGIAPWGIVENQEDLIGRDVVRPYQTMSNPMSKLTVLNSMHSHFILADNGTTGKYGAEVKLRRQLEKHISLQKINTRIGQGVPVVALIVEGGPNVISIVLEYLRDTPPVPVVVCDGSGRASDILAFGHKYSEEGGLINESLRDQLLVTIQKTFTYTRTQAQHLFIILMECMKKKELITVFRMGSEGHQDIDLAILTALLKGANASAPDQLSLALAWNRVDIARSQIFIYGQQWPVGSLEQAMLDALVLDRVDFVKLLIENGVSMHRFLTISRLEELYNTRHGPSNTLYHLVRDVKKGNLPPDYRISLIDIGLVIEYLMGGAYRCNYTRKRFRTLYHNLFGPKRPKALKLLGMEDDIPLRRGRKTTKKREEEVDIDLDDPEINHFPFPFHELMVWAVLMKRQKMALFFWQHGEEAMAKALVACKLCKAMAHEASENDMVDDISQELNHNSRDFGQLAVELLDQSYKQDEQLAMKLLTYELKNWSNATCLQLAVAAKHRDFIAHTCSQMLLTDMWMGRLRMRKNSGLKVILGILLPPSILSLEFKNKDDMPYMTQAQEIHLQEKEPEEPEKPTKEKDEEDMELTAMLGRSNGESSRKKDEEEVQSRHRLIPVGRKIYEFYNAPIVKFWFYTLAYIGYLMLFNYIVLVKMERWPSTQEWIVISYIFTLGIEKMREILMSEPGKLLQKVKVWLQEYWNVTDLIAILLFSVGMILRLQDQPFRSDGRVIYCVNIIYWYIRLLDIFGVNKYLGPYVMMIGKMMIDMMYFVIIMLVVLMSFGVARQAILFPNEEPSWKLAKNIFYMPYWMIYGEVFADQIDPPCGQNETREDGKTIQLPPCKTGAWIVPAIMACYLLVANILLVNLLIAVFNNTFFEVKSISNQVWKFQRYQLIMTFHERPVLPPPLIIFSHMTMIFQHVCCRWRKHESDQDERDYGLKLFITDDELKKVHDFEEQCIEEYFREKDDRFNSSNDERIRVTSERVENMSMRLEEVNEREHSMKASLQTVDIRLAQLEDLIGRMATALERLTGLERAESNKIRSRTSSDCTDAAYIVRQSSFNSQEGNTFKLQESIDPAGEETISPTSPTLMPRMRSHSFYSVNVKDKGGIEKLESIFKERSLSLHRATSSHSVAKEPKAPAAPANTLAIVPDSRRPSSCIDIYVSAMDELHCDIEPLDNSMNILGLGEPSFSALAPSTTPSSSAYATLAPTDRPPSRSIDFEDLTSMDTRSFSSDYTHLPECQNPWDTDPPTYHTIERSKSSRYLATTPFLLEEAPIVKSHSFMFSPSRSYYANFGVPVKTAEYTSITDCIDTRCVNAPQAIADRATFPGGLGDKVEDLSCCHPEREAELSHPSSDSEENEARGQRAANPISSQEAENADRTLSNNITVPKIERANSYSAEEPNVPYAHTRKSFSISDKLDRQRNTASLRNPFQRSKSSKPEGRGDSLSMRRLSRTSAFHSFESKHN

IC50 | Structure (SMILES)
< 1000 nM | Cc1sc2ccc(OCc3cccnc3C(F)(F)F)cc2c1C(=O)NCCN(C)C [Cpd 117, N-[2-(dimethylamino)ethyl]-2-methyl-5-{[2-(trifluoromethyl)pyridin-3-yl]methoxy}-1-benzothiophene-3-carboxamide]
1000 to 20000 nM | Cc1sc2ccc(OCc3ccccn3)cc2c1C(=O)NC1(CO)CCOCC1 [Cpd 082, N-[4-(hydroxymethyl)oxan-4-yl]-2-methyl-5-[(pyridin-2-yl)methoxy]-1-benzothiophene-3-carboxamide]
< 1000 nM | Cc1ncsc1COc1ccc2sc(C)c(C(=O)N[C@H](C)C(N)=O)c2c1 [Cpd 006, (2R)-2-({2-methyl-5-[(4-methyl-1,3-thiazol-5-yl)methoxy]-1-benzothiophen-3-yl}formamido)propanamide]
< 1000 nM | Cc1sc2ccc(OCc3ccccc3F)cc2c1C(=O)N[C@H](CO)C(N)=O [Cpd 056, (2R)-2-({5-[(2-fluorophenyl)methoxy]-2-methyl-1-benzothiophen-3-yl}formamido)-3-hydroxypropanamide]
< 1000 nM | Cc1ncsc1COc1ccc2sc(C)c(C(=O)N[C@@H](CO)C(N)=O)c2c1 [Cpd 027, (2S)-3-hydroxy-2-({2-methyl-5-[(4-methyl-1,3-thiazol-5-yl)methoxy]-1-benzothiophen-3-yl}formamido)propanamide]
< 1000 nM | Cc1sc2ccc(OCc3ccccc3F)cc2c1C(=O)NC1(CO)CC1 [Cpd 074, 5-[(2-fluorophenyl)methoxy]-N-[1-(hydroxymethyl)cyclopropyl]-2-methyl-1-benzothiophene-3-carboxamide]
< 1000 nM | Cc1sc2ccc(OCc3ccccn3)cc2c1C(=O)NC1(CO)CCC1 [Cpd 078, N-[1-(hydroxymethyl)cyclobutyl]-2-methyl-5-[(pyridin-2-yl)methoxy]-1-benzothiophene-3-carboxamide]
< 1000 nM | Cc1sc2ccc(OCc3ccccc3F)cc2c1C(=O)NC(C)(C)C(N)=O [Cpd 063, 2-({5-[(2-fluorophenyl)methoxy]-2-methyl-1-benzothiophen-3-yl}formamido)-2-methylpropanamide]
< 1000 nM | Cc1sc2ccc(OCc3cccnc3C(F)(F)F)cc2c1C(=O)Nc1ccn(C)n1 [Cpd 092, 2-methyl-N-(1-methyl-1H-pyrazol-3-yl)-5-{[2-(trifluoromethyl)pyridin-3-yl]methoxy}-1-benzothiophene-3-carboxamide]
< 1000 nM | COc1ncccc1COc1ccc2sc(C)c(C(=O)N[C@H](C)C(N)=O)c2c1 [Cpd 140, (2R)-2-({5-[(2-methoxypyridin-3-yl)methoxy]-2-methyl-1-benzothiophen-3-yl}formamido)propanamide]
< 1000 nM | Cc1sc2ccc(OCC3CC3)cc2c1C(=O)N[C@@H](CO)C(N)=O [Cpd 050, (2S)-2-{[5-(cyclopropylmethoxy)-2-methyl-1-benzothiophen-3-yl]formamido}-3-hydroxypropanamide]
1000 to 20000 nM | Cc1sc2ccc(OCc3ccccn3)cc2c1C(=O)NC1(CO)CC1 [Cpd 075, N-[1-(hydroxymethyl)cyclopropyl]-2-methyl-5-[(pyridin-2-yl)methoxy]-1-benzothiophene-3-carboxamide]
< 1000 nM | Cc1ncsc1COc1ccc2sc(C)c(C(=O)N[C@@H](C)C(N)=O)c2c1 [Cpd 012, (2S)-2-({2-methyl-5-[(4-methyl-1,3-thiazol-5-yl)methoxy]-1-benzothiophen-3-yl}formamido)propanamide]
< 1000 nM | Cc1sc2ccc(OCc3ccccn3)cc2c1C(=O)NC1(C(N)=O)CCOCC1 [Cpd 071, 4-{2-methyl-5-[(pyridin-2-yl)methoxy]-1-benzothiophene-3-amido}oxane-4-carboxamide]
> 20000 nM | CNC(=O)c1c(C)sc2ccc(OCc3ccccc3)cc12 [Cpd 134, 5-(benzyloxy)-N,2-dimethyl-1-benzothiophene-3-carboxamide]
1000 to 20000 nM | Cc1sc2ccc(OCc3cccnc3O)cc2c1C(=O)N[C@@H](CO)C(N)=O [Cpd 054, (2S)-3-hydroxy-2-({5-[(2-hydroxypyridin-3-yl)methoxy]-2-methyl-1-benzothiophen-3-yl}formamido)propanamide]
< 1000 nM | Cc1sc2ccc(OCc3ccccc3)cc2c1C(=O)N[C@H](C)C(N)=O [Cpd 001, (2R)-2-{[5-(benzyloxy)-2-methyl-1-benzothiophen-3-yl]formamido}propanamide]

The remaining lines, values behind:

Structure (SMILES) | IC50
Cc1sc2ccc(OCc3ccccc3)cc2c1C(=O)NCCN1CCOC1=O [Cpd 106, 5-(benzyloxy)-2-methyl-N-[2-(2-oxo-1,3-oxazolidin-3-yl)ethyl]-1-benzothiophene-3-carboxamide] | 1000 to 20000 nM
Cc1sc2ccc(OCc3ccccc3)cc2c1C(=O)Nc1ccn(C)n1 [Cpd 091, 5-(benzyloxy)-2-methyl-N-(1-methyl-1H-pyrazol-3-yl)-1-benzothiophene-3-carboxamide] | < 1000 nM
Cc1ncsc1COc1ccc2sc(C)c(C(=O)NC3CCNCC3(F)F)c2c1 (single isomer, unassigned) [Cpd 042 - En1, N-(3,3-difluoropiperidin-4-yl)-2-methyl-5-[(4-methyl-1,3-thiazol-5-yl)methoxy]-1-benzothiophene-3-carboxamide] | < 1000 nM
Cc1ncsc1COc1ccc2sc(C)c(C(=O)NC3(CO)CCOCC3)c2c1 [Cpd 036, N-[4-(hydroxymethyl)oxan-4-yl]-2-methyl-5-[(4-methyl-1,3-thiazol-5-yl)methoxy]-1-benzothiophene-3-carboxamide] | < 1000 nM
Cc1ncsc1COc1ccc2sc(C)c(C(=O)NC3CCOC3)c2c1 (stereo not shown) [Cpd 043, 2-methyl-5-[(4-methyl-1,3-thiazol-5-yl)methoxy]-N-(oxolan-3-yl)-1-benzothiophene-3-carboxamide] | < 1000 nM
Cc1sc2ccc(OCc3ccccc3)cc2c1C(=O)NC1(CO)CCOCC1 [Cpd 080, 5-(benzyloxy)-N-[4-(hydroxymethyl)oxan-4-yl]-2-methyl-1-benzothiophene-3-carboxamide] | 1000 to 20000 nM
Cc1sc2ccc(OCc3ccccc3F)cc2c1C(=O)NC1(CO)CCOCC1 [Cpd 081, 5-[(2-fluorophenyl)methoxy]-N-[4-(hydroxymethyl)oxan-4-yl]-2-methyl-1-benzothiophene-3-carboxamide] | < 1000 nM
Cc1sc2ccc(OCC3CCOCC3)cc2c1C(=O)NC(C)(CO)C(N)=O (single isomer, unassigned) [Cpd 067 - En2, 3-hydroxy-2-methyl-2-({2-methyl-5-[(oxan-4-yl)methoxy]-1-benzothiophen-3-yl}formamido)propanamide] | 1000 to 20000 nM
CN1CCC(NC(=O)c2c(C(F)F)sc3ccc(OCc4ccccc4)cc23)CC1 [Cpd 128, 5-(benzyloxy)-2-(difluoromethyl)-N-(1-methylpiperidin-4-yl)-1-benzothiophene-3-carboxamide] | 1000 to 20000 nM
Cc1sc2ccc(OCc3ccccc3F)cc2c1C(=O)NC1CCNCC1(F)F (single isomer, unassigned) [Cpd 095 - En2, N-(3,3-difluoropiperidin-4-yl)-5-[(2-fluorophenyl)methoxy]-2-methyl-1-benzothiophene-3-carboxamide] | 1000 to 20000 nM
Cc1ncsc1COc1ccc2sc(C)c(C(=O)N[C@@H]3CCN(CCO)C3=O)c2c1 [Cpd 028, N-[(3R)-1-(2-hydroxyethyl)-2-oxopyrrolidin-3-yl]-2-methyl-5-[(4-methyl-1,3-thiazol-5-yl)methoxy]-1-benzothiophene-3-carboxamide] | 1000 to 20000 nM
Cc1ncsc1COc1ccc2sc(C)c(C(=O)NC3(CO)CCC3)c2c1 [Cpd 035, N-[1-(hydroxymethyl)cyclobutyl]-2-methyl-5-[(4-methyl-1,3-thiazol-5-yl)methoxy]-1-benzothiophene-3-carboxamide] | < 1000 nM
O=C(NC1CCOC1)c1c(C(F)F)sc2ccc(OCc3ccccc3)cc12 (stereo not shown) [Cpd 147, 5-(benzyloxy)-2-(difluoromethyl)-N-(oxolan-3-yl)-1-benzothiophene-3-carboxamide] | 1000 to 20000 nM
Cc1ncsc1COc1ccc2sc(C)c(C(=O)NCC(C)(C)O)c2c1 [Cpd 045, N-(2-hydroxy-2-methylpropyl)-2-methyl-5-[(4-methyl-1,3-thiazol-5-yl)methoxy]-1-benzothiophene-3-carboxamide] | < 1000 nM
Cc1sc2ccc(OCc3ccccc3)cc2c1C(=O)NCC(C)(C)N1CCOCC1 [Cpd 098, 5-(benzyloxy)-2-methyl-N-[2-methyl-2-(morpholin-4-yl)propyl]-1-benzothiophene-3-carboxamide] | 1000 to 20000 nM
Cc1sc2ccc(OCc3ccccc3)cc2c1C(=O)NCC1(N(C)C)CCCC1 [Cpd 111, 5-(benzyloxy)-N-{[1-(dimethylamino)cyclopentyl]methyl}-2-methyl-1-benzothiophene-3-carboxamide] | < 1000 nM
Cc1ncc(COc2ccc3sc(C)c(C(=O)NC4(C(N)=O)CCOCC4)c3c2)s1 [Cpd 021, 4-{2-methyl-5-[(2-methyl-1,3-thiazol-5-yl)methoxy]-1-benzothiophene-3-amido}oxane-4-carboxamide] | < 1000 nM
